Measurements published in patent publication US20230125212A1, “MEANS AND METHODS FOR ENHANCING CA[…]” (priority 2020, published 2023).

System: pilocarpine-induced epilepsy
Test: Rat model of pilocarpine-induced epilepsy, seizure scoring by Racine scale
Type: in vivo
Details: CBD 25 mg/kg IP; cumulative Racine score over 120 min after pilocarpine 350 mg/kg
Description: Objective: The aim of the current study is to assess the effect of a new CBD formulation as seizures protection in the rat model of pilocarpine-induced epilepsy.
Study variables and endpoints: The formulation is administered IP (Intraperitoneally). The animals are assessed for: • a. Mortality & morbidity—Twice daily • b. Body weight monitoring—During acclimation and before Test Item (TI) dosing (Day 1) • c. Clinical signs—Before TI dosing, continuous follow-up during the first two hours following Pilocarpine administration. Monitoring of number and duration of seizures during 120 minutes following pilocarpine administration (Seizures rating according to Racine scale). • d. Study termination—At the end of the seizures' observation (120 minutes after Pilocarpine administration) animals are sedated with Ketamine/Xylazine mixture and are subjected to pericardial perfusion with PBS and PFA 4%, brains will be removed and stored in PFA 4% until histopathological analysis
Administration of the Test Items Each Test Item and vehicle formulation are administered to tested animals, according to Table. […]
Seizure scoring: Following model induction by Pilocarpine injection, the animals are video recorded for 2 hours. The videos are analyzed and seizures rating are recorded according to the following Racine scale below. • a. […]

## C=C(C)[C@@H]1CCC(C)=C[C@H]1c1c(O)cc(CCCCC)cc1O [CBD, Cannabidiol]
  AV-Seizure Score: 29.2
